# In patent US7674801B2 (AstraZeneca AB, priority 2006, dated 2010):
# Target: S. aureus (SAU) GyrB ATPase (Staphylococcus aureus, UniProt P0A0K8)
# Assay: S. aureus GyrB ATPase inhibition, ammonium molybdate/malachite green phosphate detection assay
# Assay type: biochemical
# Conditions: 10 compound concentrations; 500 μM ATP
# Experimental: Compounds were tested for inhibition of GyrB ATPase activity using an ammonium molybdate/malachite green-based phosphate detection assay (Lanzetta, P. A., L. J. Alvarez, P. S. Reinach, and O. A. Candia, 1979, 100: 95-97). Assays were performed in multiwell plates in 100 μl reactions containing: 50 mM Hepes buffer pH 7.5, 75 mM ammonium acetate, 8.0 mM magnesium chloride, 1.0 mM ethylenediaminetetraacetic acid, 5% glycerol, 2 mM 1,4-Dithio-DL-threitol, 400 nM bovine serum albumin, 5 μg/ml sheared salmon sperm DNA, 1.25 nM E. coli GyrA, 1.25 nM S. aureus GyrB, 500 μM ATP, and compound in dimethylsulfoxide. Reactions were quenched with 150 μl of ammonium molybdate/malachite green detection reagent containing 1.2 mM malachite green hydrochloride, 8.5 mM ammonium molybdate tetrahydrate, and 1 M hydrochloric acid. Plates were read in an absorbance plate reader at 650 nm and percent inhibition values were calculated using dimethylsulfoxide (2%)-containing reactions as 0% inhibition and novobiocin-containing (2 μM) reactions as 100% inhibition controls. Compound potency was based on IC50 measurements determined from reactions performed in the presence of 10 different compound concentrations.
# S. aureus (SAU) GyrB ATPase, sequence (P0A0K8 whole entry): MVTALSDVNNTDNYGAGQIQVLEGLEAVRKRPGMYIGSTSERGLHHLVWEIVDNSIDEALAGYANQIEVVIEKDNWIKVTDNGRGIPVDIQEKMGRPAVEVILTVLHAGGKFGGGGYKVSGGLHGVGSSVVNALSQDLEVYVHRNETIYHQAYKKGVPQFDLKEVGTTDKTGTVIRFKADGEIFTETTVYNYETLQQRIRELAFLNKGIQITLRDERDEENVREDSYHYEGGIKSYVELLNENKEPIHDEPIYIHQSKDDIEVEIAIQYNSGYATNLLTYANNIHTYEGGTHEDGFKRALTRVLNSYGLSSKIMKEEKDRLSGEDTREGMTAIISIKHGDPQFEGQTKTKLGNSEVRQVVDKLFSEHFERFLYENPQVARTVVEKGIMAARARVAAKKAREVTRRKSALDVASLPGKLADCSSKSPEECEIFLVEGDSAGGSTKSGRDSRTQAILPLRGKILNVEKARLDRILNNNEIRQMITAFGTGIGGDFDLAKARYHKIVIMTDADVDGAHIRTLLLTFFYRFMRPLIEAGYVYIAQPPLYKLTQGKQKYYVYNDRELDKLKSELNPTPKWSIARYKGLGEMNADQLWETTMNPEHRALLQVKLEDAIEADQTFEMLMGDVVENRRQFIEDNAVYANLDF
# S. aureus (SAU) GyrB ATPase, sequence (P0AES4 whole entry, further chain): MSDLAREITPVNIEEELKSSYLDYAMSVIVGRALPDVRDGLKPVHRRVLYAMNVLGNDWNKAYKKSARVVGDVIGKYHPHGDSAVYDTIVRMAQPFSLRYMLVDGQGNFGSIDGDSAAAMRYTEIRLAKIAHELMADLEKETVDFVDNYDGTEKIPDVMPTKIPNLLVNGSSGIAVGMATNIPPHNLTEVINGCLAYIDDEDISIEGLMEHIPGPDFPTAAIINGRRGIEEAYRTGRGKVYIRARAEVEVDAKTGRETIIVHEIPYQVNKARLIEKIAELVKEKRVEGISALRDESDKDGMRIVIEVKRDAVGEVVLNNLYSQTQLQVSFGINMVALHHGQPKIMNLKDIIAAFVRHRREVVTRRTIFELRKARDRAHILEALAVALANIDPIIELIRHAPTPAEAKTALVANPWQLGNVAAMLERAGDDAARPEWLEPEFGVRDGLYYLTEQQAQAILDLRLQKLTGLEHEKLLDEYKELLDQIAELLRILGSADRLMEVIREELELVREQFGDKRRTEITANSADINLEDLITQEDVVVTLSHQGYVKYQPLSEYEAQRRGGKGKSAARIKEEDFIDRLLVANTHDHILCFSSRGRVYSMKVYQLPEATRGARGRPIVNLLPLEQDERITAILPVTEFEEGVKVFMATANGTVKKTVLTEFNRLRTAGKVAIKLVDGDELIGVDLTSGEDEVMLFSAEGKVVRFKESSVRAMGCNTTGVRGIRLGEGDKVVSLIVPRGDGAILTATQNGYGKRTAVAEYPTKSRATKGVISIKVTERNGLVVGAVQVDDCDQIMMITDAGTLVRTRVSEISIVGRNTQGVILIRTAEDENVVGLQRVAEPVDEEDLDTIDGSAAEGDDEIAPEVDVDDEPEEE
row,Compound,IC50 [nM]
1,"CCNC(=O)Nc1ccc(-c2ncc(C(=O)O)s2)cn1 [Example 17, 2-(6-{[(ethylamino)carbonyl]amino}pyridin-3-yl)-1,3-thiazole-5-carboxylic acid]",266
2,"CCNC(=O)Nc1ccc(-c2cncc(C(=O)O)c2)cn1 [Example 19, 6′-{[(Ethylamino)carbonyl]amino}-3,3′-bipyridine-5-carboxylic acid]",846

# Same assay, conditions: compound concentration 5 μM (values marked *)
row,Compound,inhibition at 5 µM [%]
1,"CCNC(=O)Nc1ncc(-c2ncc(C(=O)OC)s2)cn1 [Example 14, Methyl 2-(2-{[(ethylamino)carbonyl]amino}pyrimidin-5-yl)-1,3-thiazole-5-carboxylate]",99.5
2,"CCNC(=O)Nc1cccc(-c2ccc(C(=O)OCC)cc2)n1 [Example 16, Ethyl 4-(6-{[(ethylamino)carbonyl]amino}pyridin-2-yl)benzoate]",1.28
3,"CCNC(=O)Nc1ccc(-c2ncc(C(=O)NOC)s2)cn1 [Example 34, 2-(6-{[(Ethylamino)carbonyl]amino}pyridin-3-yl)-N-methoxy-1,3-thiazole-5-carboxamide]",42.5

# Same assay, conditions: read-out: S. aureus (SAU) GyrB ATPase % Inhibition, compound concentration 12.5 μM
row,Compound,inhibition at 12.5 µM [%]
1,"CCNC(=O)Nc1ccc(-c2ncc(C(=O)OC)s2)cn1 [Example 1, Methyl 2-(6-{[(ethylamino)carbonyl]amino}pyridin-3-yl)-1,3-thiazole-5-carboxylate]",3.02
2,"CCNC(=O)Nc1ccc(-c2nc(C(=O)OCC)cs2)cn1 [Example 2, Ethyl 2-(6-{[(ethylamino)carbonyl]amino}pyridin-3-yl)-1,3-thiazole-4-carboxylate]",99.1
3,"CCNC(=O)Nc1ccc(-c2cncc(C(=O)OCC)c2)cn1 [Example 3, Ethyl 6′-{[(ethylamino)carbonyl]amino}-3,3′-bipyridine-5-carboxylate]",55
4,"CCNC(=O)Nc1ccc(-c2nc3cccc(C(=O)OCC)c3s2)cn1 [Example 4, Ethyl 2-(6-{[(ethylamino)carbonyl]amino}pyridin-3-yl)-1,3-benzothiazole-7-carboxylate]",84
5,"CCNC(=O)Nc1ccc(-c2ccc(C(=O)OC)cn2)cn1 [Example 5, Methyl 6′-{[(ethylamino)carbonyl]amino}-2,3′-bipyridine-5-carboxylate]",63.7
6,"CCNC(=O)Nc1ccc(-c2cccc(C(=O)OC)c2)cn1 [Example 6, Methyl 3-(6-{[(ethylamino)carbonyl]amino}pyridin-3-yl)benzoate]",99.7
7,"CCNC(=O)Nc1ccc(-c2ccc(C(=O)OC)cc2)cn1 [Example 7, Methyl 4-(6-{[(ethylamino)carbonyl]amino}pyridin-3-yl)benzoate]",97.4
8,"CCNC(=O)Nc1ccc(-c2nc(C(=O)NC)c(C(=O)OC(C)C)s2)cn1 [Example 8, Isopropyl 2-(6-{[(ethylamino)carbonyl]amino}pyridin-3-yl)-4-[(methylamino)carbonyl]-1,3-thiazole-5-carboxylate]",81.5
9,"CCNC(=O)Nc1ccc(-c2nc(C(=O)NC3CC3)c(C(=O)OCC)s2)cn1 [Example 9, Ethyl 4-[(cyclopropylamino)carbonyl]-2-(6-{[(ethylamino)carbonyl]amino}pyridin-3-yl)-1,3-thiazole-5-carboxylate]",93.5
10,"CCCCNC(=O)c1nc(-c2ccc(NC(=O)NCC)nc2)sc1C(=O)OCC [Example 10, Ethyl 4-[(butylamino)carbonyl]-2-(6-{[(ethylamino)carbonyl]amino}pyridin-3-yl)-1,3-thiazole-5-carboxylate]",92.6
11,"CCNC(=O)Nc1ccc(-c2ccc3nc(C(=O)OC)cn3c2)cn1 [Example 12, Methyl 6-(6-{[(ethylamino)carbonyl]amino}pyridin-3-yl)imidazo[1,2-a]pyridine-2-carboxylate]",92.6
12,"CCNC(=O)Nc1ncc(-c2cccc(C(=O)OC)c2)cn1 [Example 13, Methyl 3-(2-{[(ethylamino)carbonyl]amino}pyrimidin-5-yl)benzoate]",99
13,"CCNC(=O)Nc1cccc(-c2cccc(C(=O)OCC)c2)n1 [Example 15, Ethyl 3-(6-{[(ethylamino)carbonyl]amino}pyridin-2-yl)benzoate]",97.9
14,"CCNC(=O)Nc1ccc(-c2ncc(C(=O)O)s2)cn1 [Example 17, 2-(6-{[(ethylamino)carbonyl]amino}pyridin-3-yl)-1,3-thiazole-5-carboxylic acid]",99.1
15,"CCNC(=O)Nc1ccc(-c2nc(C(=O)O)cs2)cn1 [Example 18, 2-(6-{[(Ethylamino)carbonyl]amino}pyridin-3-yl)-1,3-thiazole-4-carboxylic acid]",101
16,"CCNC(=O)Nc1ccc(-c2cncc(C(=O)O)c2)cn1 [Example 19, 6′-{[(Ethylamino)carbonyl]amino}-3,3′-bipyridine-5-carboxylic acid]",95.1
17,"CCNC(=O)Nc1ccc(-c2nc3cccc(C(=O)O)c3s2)cn1 [Example 20, 2-(6-{[(Ethylamino)carbonyl]amino}pyridin-3-yl)-1,3-benzothiazole-7-carboxylic acid]",98.4
18,"CCNC(=O)Nc1ccc(-c2ccc(C(=O)O)cn2)cn1 [Example 21, 6′-{[(Ethylamino)carbonyl]amino}-2,3′-bipyridine-5-carboxylic acid]",77.1
19,"CCNC(=O)Nc1ccc(-c2cccc(C(=O)O)c2)cn1 [Example 22, 3-(6-{[(Ethylamino)carbonyl]amino}pyridin-3-yl)benzoic acid]",99.7
20,"CCNC(=O)Nc1ccc(-c2ccc(C(=O)O)cc2)cn1 [Example 23, 4-(6-{[(Ethylamino)carbonyl]amino}pyridin-3-yl)benzoic acid]",92.5
21,"CCNC(=O)Nc1ccc(-c2nc(C(=O)NC)c(C(=O)O)s2)cn1 [Example 24, 2-(6-{[(Ethylamino)carbonyl]amino}pyridin-3-yl)-4-[(methylamino)carbonyl]-1,3-thiazole-5-carboxylic acid]",99.1
22,"CCNC(=O)Nc1ccc(-c2nc(C(=O)NC3CC3)c(C(=O)O)s2)cn1 [Example 25, 4-[(Cyclopropylamino)carbonyl]-2-(6-{[(ethylamino)carbonyl]amino}pyridin-3-yl)-1,3-thiazole-5-carboxylic acid]",99.5
23,"CCNC(=O)Nc1ccc(-c2nc(C(C)=O)c(C(=O)O)s2)cn1 [Example 27, 4-Acetyl-2-(6-{[(ethylamino)carbonyl]amino}pyridin-3-yl)-1,3-thiazole-5-carboxylic acid]",99.1
24,"CCNC(=O)Nc1ccc(-c2ccc3nc(C(=O)O)cn3c2)cn1 [Example 28, 6-(6-{[(Ethylamino)carbonyl]amino}pyridin-3-yl)imidazo[1,2-a]pyridine-2-carboxylic acid]",96.8
25,"CCNC(=O)Nc1ncc(-c2cccc(C(=O)O)c2)cn1 [Example 29, 3-(2-{[(Ethylamino)carbonyl]amino}pyrimidin-5-yl)benzoic acid]",13.6
26,"CCNC(=O)Nc1ncc(-c2ncc(C(=O)O)s2)cn1 [Example 30, 2-(2-{[(Ethylamino)carbonyl]amino}pyrimidin-5-yl)-1,3-thiazole-5-carboxylic acid]",62.9
27,"CCNC(=O)Nc1cccc(-c2cccc(C(=O)O)c2)n1 [Example 31, 3-(6-{[(Ethylamino)carbonyl]amino}pyridin-2-yl)benzoic acid]",100
28,"CCNC(=O)Nc1cccc(-c2ccc(C(=O)O)cc2)n1 [Example 32, 4-(6-{[(Ethylamino)carbonyl]amino}pyridin-2-yl)benzoic acid]",2.66
29,"CCNC(=O)Nc1nc(-c2ccc(C(=O)O)cc2)cs1 [Example 33, 4-(2-{[(Ethylamino)carbonyl]amino}-1,3-thiazol-4-yl)benzoic acid]",38.2
